Results taken from patent US12600740B2, “Fluorinated N-acetyl glucosamine analogs and xylose derivatives” (UTI Limited Partnership, priority 2018, dated 2026).
“Also recorded” adds a separate entry of the source.

What was measured:
human neurons = assay: Human neuron ATP luminescence assay; format: cell-based; settings: 100 μM
Procedure: If the sugar compounds are to be used in neurological disorders, they should not display toxicity to neural cells. Thus, human neurons were used to test the compounds, and the ATP luminescence assay as a readout of metabolic stress and a surrogate of toxicity. Compounds were tested at a high dose of 100 μM. […] Two compounds that reduced ATP production by more than 50% were the 4-fluorinated hemiacetals that respectively bear O3,O6-diacetates 10 (Ac-4-F-GlcNAcOH) and O3,O6-dipropanoates 11 (Pr-4-F-GlcNAcOH), with the former displaying higher cytotoxicity than the latter (FIG. 6d).
Human fetal neurons were plated at 10×10^4 cells/well in 96 well plates as previously described [Vecil, G. G. et al. Interleukin-1 is a key regulator of matrix metalloproteinase-9 expression in human neurons in culture and following mouse brain trauma in vivo. Journal of Neuroscience Research 61, 212-224 (2000)]. After 24 hours neurons were treated with 100 μM compounds and incubated for 24 hours. The ATP assay (CellTiter-Glo Luminescent Cell Viability Assay; Promega, Madison, WI, USA) was then performed to test for toxicity according to manufacturer's instructions.

TNFα = TNFα ELISA of LPS-stimulated bone marrow-derived macrophages; format: cell-based, mouse; settings: BMDMs, 50 μM, LPS 100 ng/ml, 24 hours
Procedure: Multiple Sclerosis: Mechanisms and Immunotherapy. Neuron 97, 742-768 (2018)]. It was tested whether the sugar analogs could affect the activity of macrophages, using bone marrow-derived macrophages (BMDMs) stimulated with lipopolysaccharide (LPS, 100 ng/ml). The sugar analogs were added at 50 μM prior to LPS, and the conditioned medium was collected after 24 hours and assayed for levels of the secreted cytokine TNFα. […] Testing Toxicity of Sugar Analogs
Femurs were carefully removed from euthanized female C57BI/6 mice, and marrow was flushed into a culture plate with cold complete bone marrow growth medium (DMEM, 10% fetal bovine serum, and the supplements 1% penicillin/streptomycin, 1% glutamine, 1% non-essential amino acids, and 10% supernatant from L929 cell-line enriched in macrophage-colony stimulating factor). Cells were spun at 1100 rpm for 10 minutes, resuspended in fresh growth medium and plated at 10×10^6 cells/ml in a 10 cm culture dish. Cells were grown in DMEM with supplements and L929 supernatant for 5 days, then half the medium was replaced with fresh growth medium. On day 7 growth medium was replaced with DMEM with 10% FBS and supplements. Cells were used on day 8, and experiments were conducted in DMEM with 1% FBS and supplements unless otherwise specified.
BMDM were plated at 25,000 cells in 96-well plates in DMEM+L929 media. After 24 hours media was changed to DMEM+1% FBS. One hour later, cells were treated with […] compounds or PBS. After 1 hour LPS (final concentration 100 ng/ml) was added. Following 24 hours, conditioned media was harvested for TNFα ELISA (Thermo Scientific), which was performed according to manufacturer's instructions.

CD3+ T cells = assay: Annexin V/propidium iodide staining; format: cell-based; settings: for necrotic, apoptotic, dead or live cells (Annexin V/PI): isolated CD3+ T cells, 25 μM and 50 μM; for cell death on splenocytes: propidium iodide/annexin V staining or cell cycle analysis
Source text: Cell-cycle flow cytometry with propidium iodide was used to corroborate the above results, and ensure the reduction in proliferation was not due to cell death. […] To further investigate whether the reduction of proliferation was due to cell death, Annexin V and propidium iodide staining were used to differentiate necrotic cells (propidium iodide+), apoptotic cells (annexin V+), dead cells (propidium iodide+ and annexin V+), and live cells (propidium iodide-annexin V−).
Cell cycle staining with propidium iodide (PI) and analysis by flow cytometry gives percentage of cells in apoptosis, G1, G2, and synthesis, and apoptosis. Following a membrane permeabilization, PI chelates to DNA and level of staining specifies the stage of the cell cycle (e.g., G2 phase will have twice the DNA and thus twice the PI signal as G1 phase, apoptotic cells contain less DNA than healthy cells and are identified by low PI staining). 1×10^6 splenocytes were used per sample, with four replicates per condition. Cells were collected into a tube with PBS and centrifuged (200 r.p.m. for 5 minutes). Pellet was resuspended in 500 μl PBS and 500 μl ice cold 100% ethanol was slowly added with gentle vortexing of sample. Cell suspension was stored at 4° C. for at least 2 hours (up to two weeks). Next, the suspension was centrifuged at 200 r.p.m. for 3 minutes, pellet was resuspended in PBS and suspension was centrifuged at 200 r.p.m for 10 minutes at 4° C. Pellet was resuspended in 350 μl of PI staining buffer (50 μg/ml propidium iodide, 0.1% TritonX100, 0.2 mg Dnase free Rnase A in PBS) and incubated for 30-45 minutes at room temperature. Suspension was transferred to a FACs tube and analyzed. Annexin V/Propidium iodide staining was detected using the Annexin V FITC apoptosis detection kit (BD Biosciences, #556547), which was performed according to manufacturer's instructions.

splenocytes = assay: Splenocyte thymidine proliferation assay (anti-CD3/anti-CD28); format: cell-based, mouse; settings: for Reduce T cell proliferation: activated splenocytes, significance class; for splenocyte proliferation: 25 μM, 48 hours
Procedure: It was assessed whether the glucosamine analogs have immunomodulatory properties on splenocytes isolated in culture. T cells within the splenocyte pool were polyclonally activated with anti-CD3 and anti-CD28 antibodies in the presence of compounds for 48 hours, and proliferation was determined by the uptake of tritiated thymidine and expressed as counts per minute. The relative change in proliferation of treated versus control splenocytes was taken in order to rank the compounds across multiple independent experiments (FIG. 8a).
The spleens were isolated from 8-10-week-old female C57BL/6 mice and homogenized. The cells were isolated by Ficoll gradient and spun for 30 min at 1,800 r.p.m. The cell suspension was removed and the cells were washed once with PBS. The cell pellet was subsequently re-suspended in Roswell Park Memorial Institute media containing 10% fetal bovine serum, 1% penicillin/streptomycin, 1% sodium pyruvate and 1% L-glutamine. Trypan blue exclusion was used to count live cells, and the cells were plated at 2.5×10^5 cells per well in a round-bottom 96-well plate and activated with 1,000 ng/ml plate-bound anti-CD3 and 1,000 ng/ml anti-CD28 suspended in media to preferentially activate T lymphocytes. Compounds were added at final concentrations of 25 μM. The cells were kept at 37° C. and 5% CO2 for 30 h, after which 10 μl/well (1 μCi per well) of 3H-thymidine was added for 18 h. The cells containing thymidine were harvested onto filter mats using a cell harvester and mats were allowed to dry for 24 h. The results were read by liquid scintillation counts.

Row | SMILES | cytotoxicity on neurons (human neurons) | TNFα production by LPS-stimulated macrophages (TNFα) | necrotic, apoptotic, dead or live cells (Annexin V/PI) (CD3+ T cells) | cell death on splenocytes (CD3+ T cells) | Reduce T cell proliferation (splenocytes) | splenocyte proliferation (splenocytes)
1 | CC(=O)NC1C(OC(C)=O)OC(COC(C)=O)C(F)(F)[C@@H]1OC(C)=O (mixture of isomers) [Compound 16, 2-Acetamido-1,3,6-tri-O-acetyl-2,4-dideoxy-4,4-difluoro-α/β-D-xylo-hexopyranose] | no signs of toxicity in neurons | did not alter cytokine level of activated macrophages | no evidence of causing non-specific cell apoptosis or necrosis; also recorded: did not display notable changes in their proportion of necrotic, apoptotic, dead, or live cells | did not show detectable cell death |  | 
2 | CC(=O)NC1C(OC(C)=O)OC(COC(C)=O)[C@@H](F)C1OC(C)=O (some centres unmarked) [Compound 3, reference compound] |  | did not alter cytokine level of activated macrophages | no evidence of causing non-specific cell apoptosis or necrosis; also recorded: did not display notable changes in their proportion of necrotic, apoptotic, dead, or live cells | did not show detectable cell death | **** (****p < 0.0001) | 
3 | CCCC(=O)OC1OC(COC(C)=O)[C@@H](F)[C@H](OC(C)=O)C1NC(C)=O (mixture of isomers) [Compound 8, 2-Acetamido-3,6-di-O-acetyl-1-O-butanoyl-2,4-dideoxy-4-fluoro-α/β-D-glucopyranose] |  |  |  | did not show detectable cell death |  | 
4 | CCCC(=O)OC[C@H]1OC(O)[C@H](NC(C)=O)[C@@H](OC(=O)CCC)[C@@H]1F (stereo partly drawn) [Compound 12, 2-Acetamido-3,6-di-O-butanoyl-2,4-dideoxy-4-fluoro-α/β-3-D-glucopyranose] | showed no cytotoxicity |  |  |  | ** (**p < 0.01) | reduced splenocyte proliferation
5 | CC(=O)N[C@H]1[C@H](OC(C)=O)O[C@H](COC(C)=O)[C@@H](OC(C)=O)[C@@H]1OC(C)=O [Compound 1, reference compound] |  |  |  |  | **** (****p < 0.0001) | reduced splenocyte proliferation
6 | CC(=O)NC1C(O)OC(COC(C)=O)[C@@H](F)[C@@H]1OC(C)=O (mixture of isomers) [Compound 10] | showed evidence of toxicity on neurons | enhanced TNFα levels |  | did not show detectable cell death |  | 
